# System: whole cells (NMuLi, C2Cl2, and L6 cells, isolated cardiomyocytes, human primary fibroblasts)
# Test: Oxygen consumption rate (OCR) in whole cells, Seahorse XF-24 Flux Analyzer
# Format: cell-based
# Conditions: cell type for Table 1 not stated, read-out: OCR Activity (increase in OCR), binned EC50
# Procedure: Biological activities of the compounds synthesized is determined by determining increase in oxygen consumption rate (OCR).
# Oxygen consumption rate (OCR) in whole cells is measured in general accordance with the method of Kenwood B M et al. (Mol. Met. (2014) 3: 114-123).
# OCR is measured using a Seahorse XF-24 Flux Analyzer (Seahorse Biosciences, North Billerica, Mass.). NMuLi, C2Cl2, and L6 cells are seeded in a Seahorse 24-well tissue culture plate at a density of 3.5×10^4 cells/well, isolated cardiomyocytes at a density of 4×10^4 cells/well, and human primary fibroblasts at a density of 1.1×10^4 cells/well. The cells are then allowed to adhere for 24 h. Prior to the assay, the media is changed to unbuffered DMEM containing pyruvate and glutamine (Gibco #12800-017, pH=7.4 at 37° C.) and the cells are equilibrated for 30 mins at 37° C. Compounds are injected during the assay and OCR is measured using 2 min measurement periods.
# 2-3 wells are used per condition and averaged over three plates (n=6-9). Statistical significance is determined by two-way ANOVA with Bonfenoni's posttest.
# Activities are reported as binned EC50 values: A=5 μM or less; B=>5 to 20 μM; C=over 20 μM; NA=no effect.
row,SMILES,EC50 [µM]
1,"COc1nc2[nH]c(C(F)(F)F)nc2nc1Nc1ccc(OC(F)(F)F)cc1F [Compound 2-21, 6-methoxy-N-(2-fluoro-4-(trifluoromethoxy)phenyl)-2-(trifluoromethyl)-1H-imidazo[4,5-b]pyrazin-5-amine]",≤ 5
2,"FC(F)(F)c1ccc(Nc2nc3[nH]c(C(F)(F)F)nc3nc2Oc2ccc(C(F)(F)F)cc2)cc1 [Compound 2-47, 2-(trifluoromethyl)-5-(4-(trifluoromethyl)phenoxy)-N-(4-(trifluoromethyl)phenyl)-1H-imidazo[4,5-b]pyrazin-6-amine]",≤ 5
3,"COc1nc2nc(C(F)(F)F)[nH]c2nc1N(C)c1ccc(C(F)(F)F)cc1 [Compound 2-49, 5-methoxy-N-methyl-2-(trifluoromethyl)-N-(4-(trifluoromethyl)phenyl)-1H-imidazo[4,5-b]pyrazin-6-amine]",≤ 5
4,"Oc1nc2[nH]c(C(F)(F)F)nc2nc1Nc1cccc(C(F)(F)F)c1F [Compound 2-54, 5-((2-fluoro-3-(trifluoromethyl)phenyl)amino)-2-(trifluoromethyl)-1H-imidazo[4,5-b]pyrazin-6-ol]",> 20
5,"Oc1nc2[nH]c(C(F)(F)F)nc2nc1Nc1ccc(C(F)(F)F)cc1 [Compound 2-55, 5-((4-(trifluoromethyl)phenyl)amino)-2-(trifluoromethyl)-1H-imidazo[4,5-b]pyrazin-6-ol]",> 20
6,"COc1nc2[nH]c(-c3ccccc3)nc2nc1Nc1ccc(OC(F)(F)F)cc1 [Compound 2-60, 6-methoxy-2-phenyl-N-(4-(trifluoromethoxy)phenyl)-1H-imidazo[4,5-b]pyrazin-5-amine]",> 20
7,"COc1nc2nc(C(F)(F)F)[nH]c2cc1Nc1ccccc1F [Compound 2-61, N-(2-fluorophenyl)-5-methoxy-2-(trifluoromethyl)-1H-imidazo[4,5-b]pyridin-6-amine]",> 20
8,"COc1nc2nc(C(F)(F)F)[nH]c2cc1Nc1ccc(OC(F)(F)F)cc1 [Compound 2-62, 5-methoxy-N-(4-(trifluoromethoxy)phenyl)-2-(trifluoromethyl)-1H-imidazo[4,5-b]pyridin-6-amine]",5 to 20
9,"COc1nc2nc(C(F)(F)F)[nH]c2cc1Nc1cccc(OC(F)(F)F)c1 [Compound 2-63, 5-methoxy-N-(3-(trifluoromethoxy)phenyl)-2-(trifluoromethyl)-1H-imidazo[4,5-b]pyridin-6-amine]",> 20
10,"COc1nc2nc(C(F)(F)F)[nH]c2cc1Nc1ccc(C(F)(F)F)cc1 [Compound 2-64, 5-methoxy-2-(trifluoromethyl)-N-(4-(trifluoromethyl)phenyl)-1H-imidazo[4,5-b]pyridin-6-amine]",5 to 20
11,"COc1nc2nc(C(F)(F)F)[nH]c2cc1Nc1cccc(C(F)(F)F)c1 [Compound 2-65, 5-methoxy-2-(trifluoromethyl)-N-(3-(trifluoromethyl)phenyl)-1H-imidazo[4,5-b]pyridin-6-amine]",> 20
12,"COc1nc2nc(C(F)(F)F)[nH]c2cc1Nc1ccc(OC(F)(F)F)cc1F [Compound 2-66, N-(2-fluoro-4-(trifluoromethoxy)phenyl)-5-methoxy-2-(trifluoromethyl)-1H-imidazo[4,5-b]pyridin-6-amine]",≤ 5
13,"COc1nc2[nH]c(C(F)(F)F)nc2cc1Nc1cccc(F)c1 [Compound 2-67, N-(3-fluorophenyl)-5-methoxy-2-(trifluoromethyl)-3H-imidazo[4,5-b]pyridin-6-amine]",5 to 20
14,"COc1nc2[nH]c(C(F)(F)F)nc2cc1Nc1cccc(F)c1F [Compound 2-68, N-(2,3-Difluorophenyl)-5-methoxy-2-(trifluoromethyl)-3H-imidazo[4,5-b]pyridin-6-amine]",5 to 20
15,"COc1ccc(Nc2cc3nc(C(F)(F)F)[nH]c3nc2OC)cc1 [Compound 2-69, 5-methoxy-N-(4-methoxyphenyl)-2-(trifluoromethyl)-3H-imidazo[4,5-b]pyridin-6-amine]",≤ 5
16,"COc1nc2[nH]c(C(F)(F)F)nc2cc1Nc1cccc(C(C)(C)C)c1 [Compound 2-70, N-(3-(tert-butyl)phenyl)-5-methoxy-2-(trifluoromethyl)-3H-imidazo[4,5-b]pyridin-6-amine]",> 20
17,"COc1nc2[nH]c(C(F)(F)F)nc2cc1Nc1cc(C(F)(F)F)cc(C(F)(F)F)c1 [Compound 2-72, N-(3,5-bis(trifluoromethyl)phenyl)-5-methoxy-2-(trifluoromethyl)-3H-imidazo[4,5-b]pyridin-6-amine]",5 to 20
18,"COc1nc2[nH]c(C(F)(F)F)nc2cc1Nc1ccc(C)cc1 [Compound 2-73, 5-methoxy-N-(p-tolyl)-2-(trifluoromethyl)-3H-imidazo[4,5-b]pyridin-6-amine]",> 20
19,"COc1nc2[nH]c(C(F)(F)F)nc2cc1Nc1ccc(OC(F)(F)F)cc1C [Compound 2-74, 5-methoxy-N-(2-methyl-4-(trifluoromethoxy)phenyl)-2-(trifluoromethyl)-3H-imidazo[4,5-b]pyridin-6-amine]",≤ 5
20,"COc1nc2nc(C(F)(F)F)[nH]c2cc1Nc1ccc(-c2ccc(C(F)(F)F)nc2)cc1 [Compound 2-75, 5-methoxy-2-(trifluoromethyl)-N-(4-(6-(trifluoromethyl)pyridin-3-yl)phenyl)-1H-imidazo[4,5-b]pyridin-6-amine]",5 to 20
21,"Oc1nc2nc(-c3cccc(F)c3)oc2nc1Nc1ccccc1F [Compound 4-3, 2-(3-fluorophenyl)-6-((2-fluorophenyl)amino)oxazolo[4,5-b]pyrazin-5-ol]",5 to 20
22,"Oc1nc2nc(-c3cccc(F)c3)oc2nc1Nc1cc(C(F)(F)F)cc(C(F)(F)F)c1 [Compound 4-5, 6-((3,5-bis(trifluoromethyl)phenyl)amino)-2-(3-fluorophenyl)oxazolo[4,5-b]pyrazin-5-ol]",5 to 20

# System: Male C57BL/6J mice on western diet
# Test: Diet induced obesity mouse study
# Format: in vivo
# Conditions: WD containing 2-21, ~40 mg/kg/day, after 28 days of WD
# From the text: FIG. 1. Diet induced obesity reversal data, for mice given a regular chow diet, a Western diet, or a Western diet plus compound 2-21. FIG. 1A, Body mass versus time; FIG. 1B, fat mass (measured by EchoMRI) versus time; FIG. 1C, food intake (last 14 days) versus time.
# Male C57BL/6J mice aged 3 months were assigned to either normal chow diet (Chow, n=5) or western diet (WD, n=10) for 28 days. After 28 days half of the WD group were switched to WD containing compound 2-21 at a concentration resulting in consumption of ˜40 mg/kg/day 1-112 (2-21 40 mpk). Body mass (A), fat mass (measured by EchoMRI (B)), and food intake (C. for the final 14 days) were recorded as indicated.
SMILES,Body mass,Fat mass (measured by EchoMRI)
"COc1nc2[nH]c(C(F)(F)F)nc2nc1Nc1ccc(OC(F)(F)F)cc1F [Compound 2-21, 6-methoxy-N-(2-fluoro-4-(trifluoromethoxy)phenyl)-2-(trifluoromethyl)-1H-imidazo[4,5-b]pyrazin-5-amine]",lost body weight,lost body weight and fat mass

# Same assay, conditions: WD containing 2-21, ~40 mg/kg/day; final 14 days
row,SMILES,Food intake
1,"COc1nc2[nH]c(C(F)(F)F)nc2nc1Nc1ccc(OC(F)(F)F)cc1F [Compound 2-21, 6-methoxy-N-(2-fluoro-4-(trifluoromethoxy)phenyl)-2-(trifluoromethyl)-1H-imidazo[4,5-b]pyrazin-5-amine]",without a significant change in food intake

# Reference: patent US11708376B2 (VIRGINIA TECH INTELLECTUAL PROPERTIES, INC., priority 2018, dated 2023)
